Laboratory results published in article PMC5485393, “Tailored chondroitin sulfate glycomimetics via a tunable multivalent scaffold for potentiating NGF/TrkA-induced neurogenesis” (Chemical Science, 2014).

Target: NGF (Homo sapiens, UniProt P01138)
Experiment: SPR (Biacore T100) kinetic analysis of NGF binding to immobilized glycopeptides
Conditions: for kon: read-out: association rate constant ka of NGF binding (SPR), SEM
Experimental: SPR technology was employed to facilitate quantitative, real-time kinetic analysis of glycopeptide–NGF binding. Biotinylated glycopeptides and CS-E polysaccharides were immobilized on streptavidin-coated surface at normalized levels by molecular weights, and the interactions with NGF were investigated as a function of NGF concentration.
Surface Plasmon Resonance (SPR): Affinity measurements were performed using a Biacore T100
system (GE Healthcare). The CM5 sensor chip was used for all measurements. The sensor was primed
with HBS-EP+ (10 mM HEPES pH 7.4, 150 mM NaCl, 3.4 mM EDTA, 0.005% P20, GE Healthcare)
buffer and was activated using amine coupling through 1:1 mixture of 0.4 M EDC and 0.1 M NHS.
Streptavidin solution (0.008mg/ml) in Acetate 5.0 buffer (GE Healthcare) was used and remaining
activated groups were blocked with 1 M solution of ethanolamine (pH 8.5). The final amount of
streptavidin covalently immobilized on the surface was typically 700 RU. Flow cell 1 (or 3) was used as a
reference to subtract nonspecific binding, drift, and the bulk refractive index, while flow cell 2 (or 4) was
further immobilized with either glycopeptides or CS-E polysaccharides. Either biotinylated glycopeptides
or CS-E polysaccharides (20 nM) were dissolved in HBS-EP+ buffer and were injected to flow cell 2 (or
4) at 30 µL/min until the baseline response increased by 104, 127, and 110 RU, for glycopeptide 5, 1, and
CS-E polysaccharides, respectively. For a given affinity measurement, these series of peptide solutions
were successively injected into the flow cells for 240 seconds of contact time and 800 seconds of
dissociation time using a flow rate of 50 μL/min at 25 °C. Flow cell was regenerated using 2.5 M MgCl2
at 30 μL/min. Association (ka) and dissociation (kd) rate constants were calculated with a 1:1 binding
model using Biacore evaluation software, and KD values were calculated from the ratio of kd to ka. Kinetic

Sequence of NGF (P01138 122-241): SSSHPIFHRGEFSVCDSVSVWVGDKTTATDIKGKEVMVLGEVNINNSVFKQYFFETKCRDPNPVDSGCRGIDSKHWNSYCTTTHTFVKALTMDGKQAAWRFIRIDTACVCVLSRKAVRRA

| SMILES | Kd | kon |
| --- | --- | --- |
| COC(=O)[C@@H]1C[C@@H](n2cc(CO[C@@H]3O[C@H](COS(=O)(=O)O)[C@H](OS(=O)(=O)O)[C@H](O[C@@H]4O[C@H](C(=O)O)[C@@H](O)[C@H](O)[C@H]4O)[C@H]3NC(C)=O)nn2)CN1C(=O)[C@@H]1C[C@@H](n2cc(CO[C@@H]3O[C@H](COS(=O)(=O)O)[C@H](OS(=O)(=O)O)[C@H](O[C@@H]4O[C@H](C(=O)O)[C@@H](O)[C@H](O)[C@H]4O)[C@H]3NC(C)=O)nn2)CN1C(=O)[C@@H]1C[C@@H](n2cc(CO[C@@H]3O[C@H](COS(=O)(=O)O)[C@H](OS(=O)(=O)O)[C@H](O[C@@H]4O[C@H](C(=O)O)[C@@H](O)[C@H](O)[C@H]4O)[C@H]3NC(C)=O)nn2)CN1C(=O)[C@@H]1C[C@@H](n2cc(CO[C@@H]3O[C@H](COS(=O)(=O)O)[C@H](OS(=O)(=O)O)[C@H](O[C@@H]4O[C@H](C(=O)O)[C@@H](O)[C@H](O)[C@H]4O)[C@H]3NC(C)=O)nn2)CN1C(=O)[C@@H]1C[C@@H](n2cc(CO[C@@H]3O[C@H](COS(=O)(=O)O)[C@H](OS(=O)(=O)O)[C@H](O[C@@H]4O[C@H](C(=O)O)[C@@H](O)[C@H](O)[C@H]4O)[C@H]3NC(C)=O)nn2)CN1C(=O)[C@@H]1C[C@@H](n2cc(CO[C@@H]3O[C@H](COS(=O)(=O)O)[C@H](OS(=O)(=O)O)[C@H](O[C@@H]4O[C@H](C(=O)O)[C@@H](O)[C@H](O)[C@H]4O)[C@H]3NC(C)=O)nn2)CN1C(=O)[C@@H]1C[C@@H](n2cc(CO[C@@H]3O[C@H](COS(=O)(=O)O)[C@H](OS(=O)(=O)O)[C@H](O[C@@H]4O[C@H](C(=O)O)[C@@H](O)[C@H](O)[C@H]4O)[C@H]3NC(C)=O)nn2)CN1C(=O)[C@@H]1C[C@@H](n2cc(CO[C@@H]3O[C@H](COS(=O)(=O)O)[C@H](OS(=O)(=O)O)[C@H](O[C@@H]4O[C@H](C(=O)O)[C@@H](O)[C@H](O)[C@H]4O)[C@H]3NC(C)=O)nn2)CN1C(=O)[C@@H]1C[C@@H](n2cc(CO[C@@H]3O[C@H](COS(=O)(=O)O)[C@H](OS(=O)(=O)O)[C@H](O[C@@H]4O[C@H](C(=O)O)[C@@H](O)[C@H](O)[C@H]4O)[C@H]3NC(C)=O)nn2)CN1C(=O)[C@@H]1C[C@@H](n2cc(CO[C@@H]3O[C@H](COS(=O)(=O)O)[C@H](OS(=O)(=O)O)[C@H](O[C@@H]4O[C@H](C(=O)O)[C@@H](O)[C@H](O)[C@H]4O)[C@H]3NC(C)=O)nn2)CN1C(=O)[C@@H]1C[C@@H](n2cc(CO[C@@H]3O[C@H](COS(=O)(=O)O)[C@H](OS(=O)(=O)O)[C@H](O[C@@H]4O[C@H](C(=O)O)[C@@H](O)[C@H](O)[C@H]4O)[C@H]3NC(C)=O)nn2)CN1C(=O)[C@@H]1C[C@@H](n2cc(CO[C@@H]3O[C@H](COS(=O)(=O)O)[C@H](OS(=O)(=O)O)[C@H](O[C@@H]4O[C@H](C(=O)O)[C@@H](O)[C@H](O)[C@H]4O)[C@H]3NC(C)=O)nn2)CN1C(=O)CCOCCOCCOCCOCCOCCOCCOCCOCCOCCOCCOCCOCCNC(=O)CCCC[C@@H]1SC[C@@H]2NC(=O)N[C@@H]21 [compound 1] | 3.57 µM | 346 M⁻¹ s⁻¹ |
| COC(=O)[C@@H]1C[C@@H](n2cc(CO[C@@H]3O[C@H](COS(=O)(=O)O)[C@H](OS(=O)(=O)O)[C@H](O[C@@H]4O[C@H](C(=O)O)[C@@H](O)[C@H](O)[C@H]4O)[C@H]3NC(C)=O)nn2)CN1C(=O)[C@@H]1CCCN1C(=O)[C@@H]1CCCN1C(=O)[C@@H]1C[C@@H](n2cc(CO[C@@H]3O[C@H](COS(=O)(=O)O)[C@H](OS(=O)(=O)O)[C@H](O[C@@H]4O[C@H](C(=O)O)[C@@H](O)[C@H](O)[C@H]4O)[C@H]3NC(C)=O)nn2)CN1C(=O)[C@@H]1CCCN1C(=O)[C@@H]1CCCN1C(=O)[C@@H]1C[C@@H](n2cc(CO[C@@H]3O[C@H](COS(=O)(=O)O)[C@H](OS(=O)(=O)O)[C@H](O[C@@H]4O[C@H](C(=O)O)[C@@H](O)[C@H](O)[C@H]4O)[C@H]3NC(C)=O)nn2)CN1C(=O)[C@@H]1CCCN1C(=O)[C@@H]1CCCN1C(=O)[C@@H]1C[C@@H](n2cc(CO[C@@H]3O[C@H](COS(=O)(=O)O)[C@H](OS(=O)(=O)O)[C@H](O[C@@H]4O[C@H](C(=O)O)[C@@H](O)[C@H](O)[C@H]4O)[C@H]3NC(C)=O)nn2)CN1C(=O)[C@@H]1CCCN1C(=O)[C@@H]1CCCN1C(=O)[C@@H]1C[C@@H](n2cc(CO[C@@H]3O[C@H](COS(=O)(=O)O)[C@H](OS(=O)(=O)O)[C@H](O[C@@H]4O[C@H](C(=O)O)[C@@H](O)[C@H](O)[C@H]4O)[C@H]3NC(C)=O)nn2)CN1C(=O)[C@@H]1CCCN1C(=O)[C@@H]1CCCN1C(=O)[C@@H]1C[C@@H](n2cc(CO[C@@H]3O[C@H](COS(=O)(=O)O)[C@H](OS(=O)(=O)O)[C@H](O[C@@H]4O[C@H](C(=O)O)[C@@H](O)[C@H](O)[C@H]4O)[C@H]3NC(C)=O)nn2)CN1C(=O)[C@@H]1CCCN1C(=O)[C@@H]1CCCN1C(=O)[C@@H]1C[C@@H](n2cc(CO[C@@H]3O[C@H](COS(=O)(=O)O)[C@H](OS(=O)(=O)O)[C@H](O[C@@H]4O[C@H](C(=O)O)[C@@H](O)[C@H](O)[C@H]4O)[C@H]3NC(C)=O)nn2)CN1C(=O)[C@@H]1CCCN1C(=O)[C@@H]1CCCN1C(=O)[C@@H]1C[C@@H](n2cc(CO[C@@H]3O[C@H](COS(=O)(=O)O)[C@H](OS(=O)(=O)O)[C@H](O[C@@H]4O[C@H](C(=O)O)[C@@H](O)[C@H](O)[C@H]4O)[C@H]3NC(C)=O)nn2)CN1C(=O)[C@@H]1CCCN1C(=O)[C@@H]1CCCN1C(=O)[C@@H]1C[C@@H](n2cc(CO[C@@H]3O[C@H](COS(=O)(=O)O)[C@H](OS(=O)(=O)O)[C@H](O[C@@H]4O[C@H](C(=O)O)[C@@H](O)[C@H](O)[C@H]4O)[C@H]3NC(C)=O)nn2)CN1C(=O)[C@@H]1CCCN1C(=O)[C@@H]1CCCN1C(=O)[C@@H]1C[C@@H](n2cc(CO[C@@H]3O[C@H](COS(=O)(=O)O)[C@H](OS(=O)(=O)O)[C@H](O[C@@H]4O[C@H](C(=O)O)[C@@H](O)[C@H](O)[C@H]4O)[C@H]3NC(C)=O)nn2)CN1C(=O)[C@@H]1CCCN1C(=O)[C@@H]1CCCN1C(=O)[C@@H]1C[C@@H](n2cc(CO[C@@H]3O[C@H](COS(=O)(=O)O)[C@H](OS(=O)(=O)O)[C@H](O[C@@H]4O[C@H](C(=O)O)[C@@H](O)[C@H](O)[C@H]4O)[C@H]3NC(C)=O)nn2)CN1C(=O)[C@@H]1CCCN1C(=O)[C@@H]1CCCN1C(=O)[C@@H]1C[C@@H](n2cc(CO[C@@H]3O[C@H](COS(=O)(=O)O)[C@H](OS(=O)(=O)O)[C@H](O[C@@H]4O[C@H](C(=O)O)[C@@H](O)[C@H](O)[C@H]4O)[C@H]3NC(C)=O)nn2)CN1C(=O)[C@@H]1CCCN1C(=O)[C@@H]1CCCN1C(=O)CCOCCOCCOCCOCCOCCOCCOCCOCCOCCOCCOCCOCCNC(=O)CCCC[C@@H]1SC[C@@H]2NC(=O)N[C@@H]21 [compound 5] | 0.146 µM | 13400 M⁻¹ s⁻¹ |
